Assay [1] concerns the target M3R (Homo sapiens, UniProt P20309). As to the kind of experiment: Ca2+ flux PAM activity against other muscarinic receptor subtypes, M3R. Conditions: in the presence of EC20 ACh; read-out: PAM activity against other muscarinic receptor subtypes M3R pIP. The assay is classed as cell-based. For orientation: Calcium assays in cells follow changes in intracellular calcium, usually with a dye or a luminescent sensor.

Assay [2] concerns the target T1, M5R (Homo sapiens, UniProt P08912).
T1 sequence (P08912 1-532): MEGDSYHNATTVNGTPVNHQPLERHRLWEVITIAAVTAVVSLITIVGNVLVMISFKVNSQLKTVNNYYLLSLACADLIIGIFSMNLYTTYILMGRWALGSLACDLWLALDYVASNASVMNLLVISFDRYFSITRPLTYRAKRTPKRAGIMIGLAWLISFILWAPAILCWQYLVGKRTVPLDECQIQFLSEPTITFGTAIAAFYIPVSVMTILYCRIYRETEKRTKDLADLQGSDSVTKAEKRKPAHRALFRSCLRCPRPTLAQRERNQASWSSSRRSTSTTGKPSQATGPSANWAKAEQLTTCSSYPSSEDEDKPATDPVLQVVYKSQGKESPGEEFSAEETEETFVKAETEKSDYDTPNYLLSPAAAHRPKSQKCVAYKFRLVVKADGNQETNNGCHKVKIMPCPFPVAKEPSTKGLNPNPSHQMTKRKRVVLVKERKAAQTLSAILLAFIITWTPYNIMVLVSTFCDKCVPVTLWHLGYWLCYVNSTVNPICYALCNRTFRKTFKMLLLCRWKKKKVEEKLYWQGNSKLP
As to the kind of experiment: Ca2+ flux PAM activity against other muscarinic receptor subtypes, M5R. The assay is classed as cell-based. The note with it: in the presence of EC20 ACh; read-out: PAM activity against other muscarinic receptor subtypes M5R pIP.

The target in assay [3] is T2, human M1R (Homo sapiens, UniProt P11229).
T2 sequence (P11229 1-460): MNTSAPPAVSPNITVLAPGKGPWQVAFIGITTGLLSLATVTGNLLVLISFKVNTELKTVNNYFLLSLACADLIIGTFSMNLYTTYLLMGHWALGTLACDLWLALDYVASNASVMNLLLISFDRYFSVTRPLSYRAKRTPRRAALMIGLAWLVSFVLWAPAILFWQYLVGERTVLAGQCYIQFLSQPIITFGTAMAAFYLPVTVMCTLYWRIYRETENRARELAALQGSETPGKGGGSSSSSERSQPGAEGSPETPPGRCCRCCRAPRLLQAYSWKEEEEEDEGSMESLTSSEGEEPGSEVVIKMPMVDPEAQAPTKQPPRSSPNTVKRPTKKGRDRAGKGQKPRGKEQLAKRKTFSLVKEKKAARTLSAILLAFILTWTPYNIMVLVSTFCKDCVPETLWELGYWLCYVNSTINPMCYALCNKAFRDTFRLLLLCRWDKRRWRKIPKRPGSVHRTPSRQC
In words: Binding modulation assay, displacement of [3H]-pirenzepine by ACh, FreeStyle 293 cell membranes. Details: expressed in transfected cells; host or cells: FreeStyle 293 cells (transient), cell membranes. Conditions: for Kb: affinity of the PAM to the free M1R, read-out: pKB Mean (converted); for log α Mean / α-value: binding cooperativity between ACh and PAM. As to the method: Binding assay was performed in 96-well plate format. Cell membranes from FreeStyle 293 cells transiently expressed human M1R were incubated with test compounds, ACh and 4 nM [^3H]-pirenzepine in an assay buffer (20 mM HEPES, 100 mM NaCl, 10 mM MgCl2, 0.1% fatty acid free BSA). After 2 h incubation at room temperature, cell membranes were transferred to GF/C filter plates (PerkinElmer, Massachusetts, USA) using cell-harvester (PerkinElmer) and washed 5 times with 300 μL of 50 mM Tris-HCl. Then, GF/C plates were dried at 42° C. 25 μL of microscint 0 (PerkinElmer) was added and the radioactivity was measured by Topcount (PerkinElmer). Non-specific bound was defined in the presence of 10 μM atropine.
All data were analyzed using GraphPad Prism 5 software (GraphPad Software Inc., California, USA). Radioligand binding data were globally fitted to the following allosteric ternary complex model:
[formula] where Y is the percentage of specific binding; [A], [B], and [C] are the concentrations of ACh, the allosteric modulator, and [^3H]-pirenzepine, respectively; KA, KB, and KC denote the equilibrium dissociation constants of ACh, the allosteric modulator, and [^3H]-pirenzepine, respectively; and αAB and […] are the cooperativities between the allosteric modulator and ACh or [^3H]-pirenzepine, respectively. […] The functional interactions between M1 PAMs and ACh were globally fitted to the following operational model of allosterism (Nat Rev Drug Discov. 2009; 8(1): 41-54 and Trends Pharmacol Sci. 2007; 28(8): 382-9)
(Displacement assays read how much labelled ligand stays bound in the presence of the test substance.)

In assay [4] the target is T3, human M1Rs (Homo sapiens, UniProt P11229).
T3 sequence (P11229 1-460): T2 sequence (P11229 1-460)
As to the kind of experiment: Ca2+ flux assay in CHO-K1 cells stably expressing human M1R (FLIPR), agonist and PAM mode, operational model fit. The class given is cell-based. Conditions: for log β Mean: allosteric effect of PAM on signaling efficacy of ACh; for log β Mean / Log TB Mean: operational model; for EC50: mean of three independent experiments; for Log TB Mean: intrinsic agonistic efficacy. The procedure: Chinese hamster ovary (CHO-K1) cells stably expressing human M1Rs (hM1R-CHO) were plated in black-walled clear-bottomed 384-well plates (5,000 cells/well) and cultured overnight at 37° C. in the presence of 5% CO2 in Ham's F-12 medium supplemented with 10% FBS and 100 U/mL penicillin-streptomycin. The following day, the medium was removed and incubated with assay buffer (Hank's balanced salt solution with 20 mM HEPES, 0.1% fatty acid free BSA) containing 2.5 μg/mL Fluo-4 AM and 1.25 mM probenecid for 30 min at 37° C. in the presence of 5% CO2. After 30 min incubation at room temperature, cells were stimulated with compounds. In this experiment, ACh and each PAM were added to the cells simultaneously. Calcium flux was measured using a fluorescence imaging plate reader (FLIPR) tetra system (Molecular Devices, Sunnyvale, CA).
[formula] the pharmacological effect and Emax denotes the maximum possible effect; [A] and [B] are the concentrations of ACh and PAM, respectively; KA and KB denote the equilibrium dissociation constants of ACh and PAM, respectively; τA and τB represent the operational measures of ACh and PAM efficacy, respectively; a is the binding cooperativity between ACh and PAM (activity to enhance ACh affinity to M1R); β is the magnitude of the allosteric effect of PAM on the signaling efficacy of ACh; n denotes the slope factor. For the analysis of functional data, the equilibrium dissociation constant of each PAM and the cooperativity between ACh and each PAM were fixed to those determined from the binding experiments.
EC50, eliciting 50% of the maximal response of an endogenous ligand, ACh, reflects the agonistic activity for M1R under conditions without ACh. […] Results of the in vitro functional parameters for M1R represent the mean and S.E.M. of three independent experiments. N/A stands for “not available”. PAM means positive allosteric modulator (Table 1).

[5] abbreviates: inflection point in the presence of EC20 ACh, read-out: M1PAM activity pIP Mean (converted).
[6] abbreviates: without ACh, read-out: M1 agonist activity pEC50 Mean (converted).

Where two headings read alike, the source gives them in different places.

Chain of M3R (P20309 whole entry): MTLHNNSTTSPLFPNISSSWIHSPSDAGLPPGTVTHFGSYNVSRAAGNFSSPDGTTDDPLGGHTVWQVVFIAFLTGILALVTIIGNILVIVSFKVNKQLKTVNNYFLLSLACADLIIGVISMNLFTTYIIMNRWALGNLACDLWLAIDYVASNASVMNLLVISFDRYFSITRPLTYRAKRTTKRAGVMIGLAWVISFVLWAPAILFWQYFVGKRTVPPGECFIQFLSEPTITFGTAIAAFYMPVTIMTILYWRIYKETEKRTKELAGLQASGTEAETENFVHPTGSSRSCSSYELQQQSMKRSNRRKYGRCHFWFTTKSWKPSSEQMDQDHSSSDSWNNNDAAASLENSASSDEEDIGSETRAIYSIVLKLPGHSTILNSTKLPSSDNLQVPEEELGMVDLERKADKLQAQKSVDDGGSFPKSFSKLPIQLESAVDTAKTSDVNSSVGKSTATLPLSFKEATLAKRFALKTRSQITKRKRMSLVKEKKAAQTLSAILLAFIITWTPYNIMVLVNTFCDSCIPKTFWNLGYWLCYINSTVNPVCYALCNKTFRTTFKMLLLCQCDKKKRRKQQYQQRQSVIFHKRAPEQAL

As to `Cn1cc(-c2ccc(CN3Cc4cccc(OCCN5CCCCC5)c4C3=O)cc2)cn1` [Compound F, 2-(4-(1-methyl-1H-pyrazol-4-yl)benzyl)-7-(2-(piperidin-1-yl)ethoxy)isoindolin-1-one], the EC50 in assay [1] was greater than 10000 nM; in assay [2], greater than 10000 nM; in assay [4] (setting [5]), 79.4 nM; in assay [4] (setting [6]) it was 2090 nM. For the same compound, the Kb in assay [3] was 9120 nM. Also, in assay [3], the “log α Mean” value was determined as 1.54. Moreover, the “log β Mean” value in assay [4] is recorded as 0.87. The “Log TB Mean” value in assay [4] is 0.15.
As for `Cn1cc(-c2ccc(CN3Cc4cccc(-c5ccn[nH]5)c4C3=O)cc2)cn1` [Compound G, 2-(4-(1-methyl-1H-pyrazol-4-yl)benzyl)-7-(1H-pyrazol-5-yl)isoindolin-1-one], the EC50 in assay [1] was greater than 10000 nM; in assay [2] it was greater than 10000 nM; in assay [4] (setting [5]), 275 nM; in assay [4] (setting [6]), greater than 10000 nM. Further, in assay [3], the Kb was 14800 nM. The “log α Mean” value in assay [3] is reported as 0.56. In addition, the “log β Mean” value in assay [4] turned out to be 0.85.
With `Cn1cc(-c2ccc(CN3Cc4cccc(Oc5c(F)cccc5C#N)c4C3=O)cc2)cn1` [Compound B, 3-fluoro-2-((2-(4-(1-methyl-1H-pyrazol-4-yl)benzyl)-3-oxo-2,3-dihydro-1H-isoindol-4-yl)oxy)benzonitrile], the EC50 is greater than 10000 nM in assay [1], greater than 10000 nM in assay [2], 40.7 nM in assay [4] (setting [5]) and 676 nM in assay [4] (setting [6]). Further, the Kb in assay [3] was 977 nM. Also, the “log α Mean” value in assay [3] was 1.18. Further, the α-value in assay [3] is listed as 16. In assay [4], the “log β Mean” value is listed as 0.58. Also, in assay [4], the “Log TB Mean” value was −0.10.
As for `Cn1ccc(-c2ccc(CN3Cc4cccc(O[C@H]5CCCC[C@@H]5O)c4C3=O)cc2)n1` [Compound A, 7-(((1S,2S)-2-hydroxycyclohexyl)oxy)-2-(4-(1-methyl-1H-pyrazol-3-yl)benzyl)isoindolin-1-one], in assay [1], the EC50 was greater than 10000 nM. In assay [2], the EC50 was greater than 10000 nM. In assay [3], the Kb was 26300 nM, the “log α Mean” value came out at 3.30 and the α-value was 2371. Moreover, in assay [4], the “log β Mean” value turned out to be 0.13 and the “Log TB Mean” value came to 2.06. In assay [4] (setting [5]), the EC50 was 10.2 nM. The EC50 in assay [4] (setting [6]) is 72.4 nM.
`O=c1c2cn(Cc3ccc(-n4cccn4)cc3)c3ccccc3c-2nn1-c1ccccc1F` [Compound E, 2-(2-fluorophenyl)-5-(4-(1H-pyrazol-1-yl)benzyl)-2,5-dihydro-3H-pyrazolo[4,3-c]quinolin-3-one, reference compound]: the EC50 is greater than 10000 nM in assay [1], greater than 10000 nM in assay [2], 8.51 nM in assay [4] (setting [5]) and 219 nM in assay [4] (setting [6]). In assay [3], the Kb is 3090 nM. In addition, the “log α Mean” value in assay [3] came out at 2.67. For the same compound, in assay [4], the “log β Mean” value is listed as −0.23. Besides, the “Log TB Mean” value in assay [4] worked out at 0.65.
`Cc1c(Cc2ccc(-n3cccn3)cc2)cc2c(c1F)CN([C@H]1COCC[C@@H]1O)C2=O` [Compound D, 4-fluoro-2-[(3S,4S)-4-hydroxytetrahydro-2H-pyran-3-yl]-5-methyl-6-[4-(1H-pyrazol-1-yl)benzyl]-2,3-dihydro-1H-isoindol-1-one]: the α-value in assay [3] was found to be 199.
Turning to `Cn1cc(-c2ccc(Cc3cc4c(=O)n([C@H]5CCCC[C@@H]5O)cnc4c4ccccc34)cn2)cn1` [Compound C, 3-((1S,2S)-2-hydroxycyclohexyl)-6-((6-(1-methyl-1H-pyrazol-4-yl)pyridin-3-yl)methyl)benzo[h]quinazoline-4(3H)-one, reference compound], the EC50 was greater than 10000 nM in assay [1], greater than 10000 nM in assay [2], 2.09 nM in assay [4] (setting [5]) and 1.62 nM in assay [4] (setting [6]). In addition, the Kb in assay [3] was 288 nM. Besides, the “log α Mean” value in assay [3] is listed as 3.25. This compound also displayed a α-value in assay [3] of 1786. Also, the “log β Mean” value in assay [4] is recorded as −0.39. The “Log TB Mean” value in assay [4] is 1.49.
